Experimental data published in ChEMBL document CHEMBL1201862, “PubChem BioAssay data set” (2004).
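Step 1: Grow cells in 96-well plates. Step 2: Expose to compound for 48 hours at 5 concentrations. Step 3: Interpolate endpoints linearly; if unreached, use highest concentration. Abbreviation: GI50, concentration required for 50% inhibition of growth.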 Calls of active or inactive are those of the source. No stated cut-off is given here; in the data, active = GI50 up to about 1.1 µM and inactive = higher.

How the values were obtained:
Test in all cases: inhibition of tumour cell growth, NCI panel, 48 h
[1] = tested on: A498
[2] = tested on: CCRF-CEM
[3] = tested on: HCT-116
[4] = tested on: K562
[5] = tested on: M14
[6] = tested on: OVCAR-4
[7] = tested on: OVCAR-8
[8] = tested on: RPMI-8226
[9] = tested on: SK-MEL-2
[10] = tested on: SK-MEL-5
[11] = tested on: SN12C
[12] = tested on: SNB-19
[13] = tested on: SNB-75
[14] = tested on: U-251
[15] = tested on: UACC-62
[16] = tested on: UO-31
[17] = tested on: LOX IMVI
[18] = tested on: SR

Measured: GI50

Clc1cccc(C2N3CCCCC3[C@@H]3c4[nH]c5ccccc5c4CCN23)c1 (stereo partly specified)
inactive: [1] 31.2 µM | [2] 19.4 µM | [3] 17.1 µM | [4] 23.1 µM | [5] 27.9 µM | [6] 33.5 µM | [7] 41.4 µM | [8] 29 µM | [9] 19.8 µM | [10] 18 µM | [11] 13.6 µM | [12] 55 µM | [13] 32.8 µM | [14] 29.2 µM | [15] 15.6 µM | [16] 24.9 µM

O=C(Nc1ccc(Cl)cc1Cl)C1C(=O)C(=O)N(c2ccc(Cl)cc2Cl)C1=O (stereo unspecified)
inactive: [1] > 100 µM | [3] 99.1 µM | [17] > 100 µM | [5] > 100 µM | [6] > 100 µM | [7] > 100 µM | [10] > 100 µM | [11] > 100 µM | [12] > 100 µM | [13] > 100 µM | [14] > 100 µM | [15] > 100 µM | [16] > 100 µM

CCOC(=O)C1=C(C)C2C3C(=O)OC(=O)C3C1(C)C1C(=O)OC(=O)C21 (stereo unspecified)
inactive: [1] > 100 µM | [2] > 100 µM | [3] > 100 µM | [4] > 100 µM | [17] > 100 µM | [5] > 100 µM | [6] > 100 µM | [7] > 100 µM | [8] > 100 µM | [9] > 100 µM | [10] > 100 µM | [11] > 100 µM | [12] > 100 µM | [13] > 100 µM | [14] > 100 µM | [15] > 100 µM | [16] > 100 µM

CC1OC(=O)N2CCC=CC12 (stereo unspecified)
inactive: [1] > 100 µM | [2] > 100 µM | [3] > 100 µM | [4] > 100 µM | [17] > 100 µM | [6] > 100 µM | [7] > 100 µM | [8] > 100 µM | [9] > 100 µM | [10] > 100 µM | [11] > 100 µM | [12] > 100 µM | [13] > 100 µM | [14] > 100 µM | [15] > 100 µM | [16] > 100 µM

CC(C)C1CC(O)O[C@@H]([C@@H](C)[C@H]2CC(=O)[C@@H]3[C@@H]4[C@@H](O)[C@H](O)[C@H]5[C@@H](O)[C@H](O)CC[C@]5(C)[C@H]4CC[C@]23C)C1 (stereo partly specified)
inactive: [2] > 100 µM | [3] 29.4 µM | [4] > 100 µM | [17] 50.1 µM | [5] 91.6 µM | [6] > 100 µM | [7] 54.1 µM | [9] 53.6 µM | [10] 52.2 µM | [11] 28.7 µM | [12] 37.8 µM | [13] 22.2 µM | [18] > 100 µM | [14] 63 µM | [15] 79.4 µM | [16] > 100 µM

O=C(/C=N/O)Nc1ccc(Cl)c(I)c1
inactive: [2] 26.7 µM | [3] 12.9 µM | [4] 24 µM | [17] 11.1 µM | [5] 18.6 µM | [6] 28.6 µM | [7] 28.9 µM | [8] 20 µM | [9] 15.7 µM | [10] 18.4 µM | [11] 22.5 µM | [12] 23.9 µM | [18] 15.7 µM | [14] 16.1 µM | [15] 10.2 µM | [16] 12.1 µM

Cc1cc(C)nc(NS(=O)(=O)c2ccc(NC(=O)c3cccc4c(Nc5ccc(S(=O)(=O)Nc6nc(C)cc(C)n6)cc5)c5ccccc5nc34)cc2)n1
inactive: [1] 18.7 µM | [2] 22.2 µM | [3] 11.7 µM | [4] 19.4 µM | [17] 17.6 µM | [5] 25.1 µM | [6] 25.7 µM | [7] 24.7 µM | [8] 20.2 µM | [9] 34 µM | [10] 16.6 µM | [11] 14.3 µM | [12] 10.2 µM | [13] 3.44 µM | [14] 16.4 µM | [15] 19.1 µM | [16] 17.7 µM

OC1=CN=C(C2CC2)Oc2ccccc21
inactive: [1] > 100 µM | [2] > 100 µM | [3] > 100 µM | [4] 84.9 µM | [17] > 100 µM | [5] > 100 µM | [6] 85.3 µM | [7] > 100 µM | [8] > 100 µM | [9] > 100 µM | [10] > 100 µM | [11] > 100 µM | [12] > 100 µM | [13] > 100 µM | [14] > 100 µM | [15] 98.6 µM | [16] 25.7 µM

O=C1NC(=O)C2C(=O)NC(=O)C1C2Cc1ccco1 (stereo unspecified)
inactive: [1] > 100 µM | [2] > 100 µM | [4] > 100 µM | [17] > 100 µM | [5] > 100 µM | [6] > 100 µM | [7] > 100 µM | [8] > 100 µM | [9] > 100 µM | [10] > 100 µM | [11] > 100 µM | [12] > 100 µM | [13] > 100 µM | [15] > 100 µM | [16] > 100 µM

CCCCCCCCCCCCCCCCNc1cccc2ccccc12
inactive: [2] > 100 µM | [3] > 100 µM | [4] > 100 µM | [17] > 100 µM | [5] > 100 µM | [7] > 100 µM | [8] > 100 µM | [11] > 100 µM | [12] > 100 µM | [13] > 100 µM | [18] > 100 µM | [14] > 100 µM | [15] > 100 µM | [16] > 100 µM

NC(=O)N=C(NCc1ccccc1)NCc1ccccc1
inactive: [3] > 100 µM | [17] > 100 µM | [5] > 100 µM | [6] > 100 µM | [7] > 100 µM | [9] > 100 µM | [10] > 100 µM | [11] > 100 µM | [12] > 100 µM | [14] > 100 µM | [15] > 100 µM | [16] > 100 µM

CCO/N=C(/N)c1ncn(Cc2ccccc2)c1NCC(OCC)OCC
inactive: [1] > 100 µM | [2] > 100 µM | [3] > 100 µM | [4] > 100 µM | [17] > 100 µM | [5] > 100 µM | [7] > 100 µM | [8] > 100 µM | [9] > 100 µM | [10] > 100 µM | [11] > 100 µM | [12] > 100 µM | [13] > 100 µM | [14] > 100 µM | [15] > 100 µM | [16] > 100 µM

N#C/C(=C1\SC(/N=N/c2ccccc2)C(=O)N1c1ccccc1)c1nc2ccccc2[nH]1 (stereo unspecified)
inactive: [1] > 100 µM | [2] 42.8 µM | [3] > 100 µM | [4] 36.3 µM | [17] > 100 µM | [5] 78.2 µM | [6] 66.7 µM | [7] > 100 µM | [9] 68.5 µM | [10] 57 µM | [11] > 100 µM | [12] > 100 µM | [13] 36.7 µM | [14] 54.2 µM | [15] > 100 µM | [16] 24.2 µM
